From US20070135437A1, “Modulation of neurodegenerative diseases” (ALSGEN, INC., priority 2005, published 2007)

Legend:
Type in all cases: cell-based, human
[1] = tested on: hSOD-1 protein levels in HeLa cells; assay: SOD-1 ELISA on lysates of HeLa cells after 72 h incubation with compound
Experimental: Briefly, cells were maintained in Dulbecco's Minimal Essential Medium, with high glucose, supplemented with glutamine, 4 mM, certified fetal bovine serum, 10%, and penicillin, streptomycin, and nystatin (all from Invitrogen). Incubation conditions were 37 degrees and 99% relative humidity, with CO2 at 5%. Cultures were passaged when they reached 90% confluence. For pharmacological experiments, cells were plated into sterile tissue culture treated 96 well plates at a density of 3,500 cells/well in 150 μl medium. After plating and 6 hours for attachment, drugs were added to the medium in a concentration of 10 μM. Following 72 hours of incubation with the drugs, the cells were photographed at 100× using an inverted microscope and digital camera, so that cytotoxicity could be evaluated. After photodocumentation, the medium was removed and the cells were washed once with phosphate buffered saline, and then 50-100 μl molecular biology grade water containing a protease inhibitor cocktail was added. After 10 min incubation, the plates were placed in −80 degrees to induce complete lysis. Plates were then thawed and 4-25 μl was transferred from each well into a maxsorp ELISA plate coated with anti-human SOD-1 antibody, which contained 75-100 μl phosphate buffered saline or blocking buffer. A second antibody pair (a polyclonal anti-SOD-1/HRP conjugated goat anti-rabbit) was then added to the well, and incubation was conducted for 1 hour at room temperature. At the conclusion of the incubation, the plate was washed three times (wash buffer from KPL Inc.) and Sure Blue Reserve HRP Substrate was added. Following a 5-10 min incubation, the reaction (which had turned blue to varying degrees) was stopped by the addition of a stop reagent (KPL). The plate was then shaken gently for 5 seconds and the absorbance at 450 nm read on a Tecan Plate reader. Absorbance from each sample were compared to standard curve of purified recombinant human SOD-1 assayed on the same ELISA plate, and SOD-1 immunoreactivity (ng/ml) was estimated by comparison with the standard curve. This example describes how to examine the in vitro effects of the antimalarial drug, pyrimethamine, as well as the compounds listed in Tables 1 through 5, on SOD-1 activity. The human cervical carcinoma derived HeLa cell line (ATCC) were cultured in Dulbecco's Minimal Essential Medium, with high glucose, supplemented with glutamine, 4 mM, certified fetal bovine serum, 10%, and penicillin, streptomycin, and nystatin (all from Invitrogen). Incubation conditions were 37° C. and 99% relative humidity, with CO2 at 5%. Cultures were passaged when they reached 90% confluence. For pharmacological experiments, cells were plated into sterile tissue culture treated 96 well plates at a density of 3,500 cells/well in 150 μl medium. Following 72 hours of incubation with each of the compounds, the cells were photographed and processed as described in Example 1 (iii). The total protein of the lysates was determined by Bradford assay as described in Example 1 (iv).

HeLa cells = assay: Bradford total protein assay of HeLa lysates (check for cytotoxic effects); conditions: 72 hours
Experimental: To determine if decrements found in the SOD-1 assay were simply the result of cytotoxic effects of the drug treatment, total protein was determined for each well. While the ELISA incubation was ongoing, 10 μl of the remaining lysate was removed from each well and placed into another empty plate, and BioRad Bradford reagent (100 μl) was added to the protein. After a 15 min incubation at room temperature the plate was shaken gently for 5 seconds and the absorbance was read at 595 nm in a Tecan Sunrise plate reader. Protein concentrations in each well were thus determined by comparison with protein standards that were run on the same plate.
Following 72 hours of incubation with each of the compounds, the cells were photographed and processed as described in Example 1 (iii). The total protein of the lysates was determined by Bradford assay as described in Example 1 (iv). […] This reduction was dose related and maximal by 10 μM, with an IC50 of less than 3 μM. […] The biological activity results recorded in Tables 1B, 2, 3, 4, and 5 show the % reduction of hSOD-1 protein levels in HeLa cells following 72 h treatment with 10 μM of each compound.

[2] = tested on: hSOD-1 protein levels in HeLa cells; assay: SOD-1 ELISA on lysates of HeLa cells after 72 h incubation with compound; conditions: 72 hours before harvest, FIG. 1, read-out: IC50 for reduction of SOD-1 protein
[3] = Table 1B, % reduction of hSOD-1 protein levels in HeLa cells, 72 h treatment, 10 μM
[4] = Table 2, % reduction of hSOD-1 protein levels in HeLa cells, 72 h treatment, 10 μM
[5] = Table 5 heterocyclic amides, % reduction of hSOD-1 protein levels in HeLa cells following 72 h treatment with 10 μM compound

Compound	Biological Activity (% inhibition at 10 μM) [1, 3] [%]	other results
Cc1cc(-c2ccccc2)nc(N(C)C)n1 [Compound 1]	33	
CN(C)c1cc(Cl)nc(SCc2ccccc2)n1 [Compound 2]	77	
Cc1cc(C)nc(SCc2cccc(Br)c2)n1 [Compound 3]	88	
Cc1ccc(Nc2nc(Cl)nc(Cl)c2Cl)cc1 [Compound 4]	96	
Cc1cnc(SCc2ccccc2Cl)nc1O [Compound 5]	79	
CCc1nc(N)nc(N)c1-c1ccc(Cl)cc1 [Compound 6]	50	
Cc1cccc(Oc2cnc(S)nc2O)c1 [Compound 7]	94	
Nc1nc(S)ncc1-c1cccc(Cl)c1 [Compound 8]	99	
N#Cc1ccc(CSc2nc(O)cc(O)n2)cc1 [Compound 9]	58	
CCCOc1ccc(-c2cnc(S)nc2N)cc1 [Compound 10]	99	
CCOc1ccc(-c2cnc(S)nc2N)cc1 [Compound 11]	99	
COc1ccc(Cc2c(Cl)nc(SC)nc2Cl)cc1 [Compound 12]	40	
CC(Oc1ccc(Cl)cc1)c1ccnc(N)n1 (stereo not drawn) [Compound 22]	84	
Nc1nc(O)ncc1-c1ccc(Cl)cc1 [Compound 23]	99	
Nc1nc(SCC(=O)O)ncc1-c1ccc(Cl)cc1 [Compound 24]	99	
Cc1ccc(Oc2cnc(S)nc2O)cc1 [Compound 25]	97	
Cc1nc(N)nc(O)c1C=CCc1ccc(Cl)cc1 [Compound 26]	97	
Cc1nc(N)nc(N)c1CCCCc1ccc(O)cc1 [Compound 27]	95	
CSc1ncc(Oc2ccc(Cl)cc2)c(O)n1 [Compound 88]	90	
COc1ccc(-c2cc(O)ncn2)cc1OC [Compound 89]	84	
Nc1ccc(Sc2cc(Cl)nc(N)n2)cc1 [Compound 92]	81	
Cc1cc(C)nc(NC(=N)Nc2cccc(Cl)c2)n1 [Compound 93]	78	

Compound	Biological Activity (% inhibition at 10 μM) [1, 3] [%]	other results
Cc1cc(C)nc(Sc2ccc(N)cc2)n1 [Compound 94]	77	
CSc1nc(N)nc(-c2ccc(Cl)cc2)c1C#N [Compound 95]	76	
CCc1c(O)ncnc1-c1ccc(C)cc1 [Compound 96]	70	
CSc1ccc(CCCc2c(C)nc(N)nc2N)cc1 [Compound 97]	69	
COc1ccc(Cc2c(C)nc(N)nc2O)cc1 [Compound 98]	67	
Oc1ccnc(SCc2ccc(Cl)cc2Cl)n1 [Compound 99]	66	
COc1ccc(CCCc2c(C)nc(N)nc2N)cc1 [Compound 100]	65	
Oc1ccnc(SCc2c(F)cccc2Cl)n1 [Compound 101]	65	
COc1ccc(Cc2cnc(N)nc2N)cc1OC [Compound 102]	64	
N#Cc1ccc(CSc2nccc(O)n2)cc1 [Compound 105]	53	
N#Cc1c(Cl)nc(Cl)nc1Nc1ccccc1 [Compound 106]	53	
CC(=O)c1c(C)nc(-c2ccc(Cl)cc2)nc1N [Compound 107]	52	
Cc1nc(N)nc(N)c1C=Cc1ccccc1 [Compound 109]	38	
Cc1nc(N)nc(N)c1OCc1ccc(Cl)cc1Cl [Compound 110]	38	
Cc1nc(N)nc(N)c1OCCc1ccc(Cl)cc1 [Compound 111]	37	
Cc1nc(N)nc(N)c1-c1ccc(Cl)c(Cl)c1 [Compound 112]	36	
COc1cc(N)nc(SCc2ccccc2Cl)n1 [Compound 113]	36	
Cc1cc(O)nc(SCc2ccc(Cl)cc2Cl)n1 [Compound 114]	35	
COc1ccc(Cc2c(O)nc(S)nc2O)cc1 [Compound 116]	33	
Cc1ccccc1CCCc1c(C)nc(N)nc1N [Compound 118]	31	
COc1cccc2oc(-c3ccccc3O)cc(=O)c12 [Compound 121]		Biological Activity (% inhibition at 10 μM) ([1]; Table 3, % reduction of hSOD-1 protein levels in HeLa cells, 72 h treatment, 10 μM): 71%
CN1CCN(c2cc(C(F)(F)F)nc3ccc(F)cc23)CC1 [Compound 136]		Biological Activity (% inhibition at 10 μM) ([1]; Table 4 quinazolines, % reduction of hSOD-1 protein levels in HeLa cells following 72 h treatment with 10 μM compound): 64%

Compound	Biological Activity (% inhibition at 10 μM) [1, 3] [%]	other results
Cc1ccc(Nc2nc(N)nc(Cl)n2)cc1 [Compound 164]		Biological Activity (% inhibition at 10 μM) [1, 4]: 43%
Cc1ccc(Nc2nc(N)nc(CCl)n2)c(C)c1 [Compound 165]		Biological Activity (% inhibition at 10 μM) [1, 4]: 99%
CCSc1nc(-c2ccccc2)nc(C(Cl)Cl)n1 [Compound 166]		Biological Activity (% inhibition at 10 μM) [1, 4]: 98%
CSc1nc(-c2ccc(C)cc2)nc(C(Cl)Cl)n1 [Compound 168]		Biological Activity (% inhibition at 10 μM) [1, 4]: 75%
CCCCNc1nc(N)nc(-c2cc(Cl)ccc2O)n1 [Compound 170]		Biological Activity (% inhibition at 10 μM) [1, 4]: 99%
CC(C)Nc1nc(Cl)nc(-c2ccccc2)n1 [Compound 186]		Biological Activity (% inhibition at 10 μM) [1, 4]: 82%
Nc1nc(CCl)nc(Nc2ccccc2)n1 [Compound 187]		Biological Activity (% inhibition at 10 μM) [1, 4]: 77%
CC(Nc1nc(N)nc(Cl)n1)c1ccccc1 (stereo not drawn) [Compound 188]		Biological Activity (% inhibition at 10 μM) [1, 4]: 38%
CNc1nc(N)nc(-c2cc(Cl)ccc2OC)n1 [Compound 189]		Biological Activity (% inhibition at 10 μM) [1, 4]: 35%
Nc1nc(N)nc(-c2ccccc2Cl)n1 [Compound 190]		Biological Activity (% inhibition at 10 μM) [1, 4]: 34%
CCCNc1nc(N)nc(-c2cc(Cl)ccc2OC)n1 [Compound 191]		Biological Activity (% inhibition at 10 μM) [1, 4]: 32%
Nc1nc(N)nc(-c2cccc([N+](=O)[O-])c2)n1 [Compound 192]		Biological Activity (% inhibition at 10 μM) [1, 4]: 32%
Nc1nc(Nc2ccc(Cl)cc2)nc(C(Cl)Cl)n1 [Compound 193]		Biological Activity (% inhibition at 10 μM) [1, 4]: 29%
Nc1ccc(C(=O)Nc2ncccn2)cc1 [Compound 194]		Biological Activity (% inhibition at 10 μM) [1, 5]: 92%
Cc1ccc(C(=O)Nc2ncccc2Cl)cc1 [Compound 197]		Biological Activity (% inhibition at 10 μM) [1, 5]: 74%
Cc1ccnc(NC(=O)c2cccc(Cl)c2)c1 [Compound 198]		Biological Activity (% inhibition at 10 μM) [1, 5]: 67%
Cc1ccc(NC(=O)c2cc(Cl)ccc2Cl)nc1 [Compound 199]		Biological Activity (% inhibition at 10 μM) [1, 5]: 94%
Cc1ccc(C(=O)Nc2ccc(Cl)cn2)cc1C [Compound 200]		Biological Activity (% inhibition at 10 μM) [1, 5]: 39%
Cc1cccc(C(=O)Nc2ccc(Cl)cn2)c1 [Compound 201]		Biological Activity (% inhibition at 10 μM) [1, 5]: 39%
CN(Cc1cnc2nc(N)nc(N)c2n1)c1ccc(C(=O)N[C@@H](CCC(=O)O)C(=O)O)cc1 [methotrexate, reference compound]		levels of SOD-1 protein in HeLa cells ([1]; HeLa cells, 72 hours, dose related, maximal by 10 μM): did not reduce
CCc1nc(N)nc(N)c1-c1ccc(Cl)cc1 [pyrimethamine]		total protein levels (HeLa cells): unaffected; IC50 [2]: < 3 µM
